{"source": "patent US20110028509A1", "about": "“Sulfonamides” (MERCK SERONO SA, priority 2008, published 2011)", "data": [{"molecular_target": "T1, CXCR3 (Homo sapiens, UniProt P49682)", "T1 sequence (P49682 1-368)": "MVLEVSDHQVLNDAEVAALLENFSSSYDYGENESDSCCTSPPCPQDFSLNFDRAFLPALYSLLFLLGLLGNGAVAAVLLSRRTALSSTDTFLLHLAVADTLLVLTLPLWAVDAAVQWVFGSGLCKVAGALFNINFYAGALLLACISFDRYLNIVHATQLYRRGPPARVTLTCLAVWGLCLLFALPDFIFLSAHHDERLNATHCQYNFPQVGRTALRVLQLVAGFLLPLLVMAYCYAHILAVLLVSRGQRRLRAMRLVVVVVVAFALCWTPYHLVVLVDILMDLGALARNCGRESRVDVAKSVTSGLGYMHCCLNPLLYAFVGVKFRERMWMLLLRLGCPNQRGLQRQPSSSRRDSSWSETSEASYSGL", "assay": "Chemotaxis assay ITAC (CXCL11), L1.2-CXCR3 cells", "format": "cell-based", "parameters": "expressed in transfected cells", "conditions": "1 nM CXCL11 (I-TAC), 4 hours", "method": "Human CXCR3 cDNA was amplified by PCR from a human cells cDNA library (Clontech) and subcloned into pcDNA3.1 (Invitrogen). Murine pre-B L1.2 cells were transfected with hCXCR3-pcDNA3.1 and were grown at 37° C., 5% CO2 in RPMI 1640 medium (Invitrogen, USA) supplemented with 5% heat inactivated fetal calf serum (Cancerra, Australia), 2 mM glutamine (Invitrogen), 50 units ml−1 penicillin, 50 μml−1 streptomycin. Stable transfectant clonal populations were selected using 800 μg/ml geneticin.\nL1.2-CXCR3 cells were grown for 24 hours at 0.5×10^6 cells/ml in chemotaxis medium containing 5 mM butyric acid (Sigma). Compounds were on one hand mixed with 1 nM of CXCL11 (I-TAC) in phenol-red free RPMI 1640 (invitrogen) supplemented with 5% fetal bovine serum in presence of 1% DMSO. The CXCL11/compounds mixture was then added to lower chambers of chemotaxis 96 well microplates (neuroprobe), and framed filters ([…] pore size) were put on top of the lower chambers. Compounds were on the other hand mixed with L1.2 CXCR3 cells and incubated in chemotaxis medium at 1.5×10^6 cells/ml in presence of 1% DMSO at 37° C., 5% CO2 for 30 minutes. Cells/compounds mixture was then added on top of the frame filters and migration was performed at 37° C., 5% CO2 for 4 hours. The number of migrated cells in the bottom chamber was determined using the CyQuant GR dye (Molecular Probe), according to the manufacturer.", "units": {"IC50": "µM"}, "values": [{"smiles": "CCOc1ccc(S(=O)(=O)N(Cc2ccc(C(=O)O)c(F)c2)Cc2ccccn2)cc1", "note": "[Example 66, 4-{[(4-Ethoxy-benzenesulfonyl)-pyridin-2-ylmethyl-amino]-methyl}-2-fluoro-benzoic acid]", "IC50": 4.6}, {"smiles": "N#Cc1ccc(S(=O)(=O)N(Cc2ccc(C(=O)O)c(F)c2)Cc2ccccn2)cc1", "note": "[Example 67, 4-{[[(4-cyanophenyl)sulfonyl](pyridin-2-ylmethyl)amino]methyl}-2-fluorobenzoic acid]", "IC50": 3.06}, {"smiles": "Cc1nc(CN(Cc2ccc(-c3nnn[nH]3)cc2)S(=O)(=O)c2ccc(Cl)cc2)cs1", "note": "[Example 68, 4-chloro-N-(2-methyl-thiazol-4-ylmethyl)-N-[4-(2H-tetrazol-5yl)benzyl]benzenesulfonamide]", "IC50": 0.13}, {"smiles": "O=C(NCC1CC1)c1ccc(CN(Cc2cccc[n+]2[O-])S(=O)(=O)c2ccc(Cl)cc2)cc1", "note": "[Example 134, 4-{[(4-Chloro-benzenesulfonyl)-(1-oxy-pyridin-2-ylmethyl)-amino]-methyl}-N-cyclopropylmethyl-benzamide]", "IC50": 2.98}, {"smiles": "C[C@@H](c1ccc(NC(=O)C2(c3ccccc3)CC2)cc1)N(Cc1ccccn1)S(=O)(=O)c1ccc(Cl)cc1", "note": "[Example 164]", "IC50": 4.27}, {"smiles": "N#Cc1ccc(S(=O)(=O)N(Cc2ccccn2)C2(c3ccc(C(=O)NC4(c5ccccc5)CC4)cc3)CC2)cc1", "note": "[Example 176]", "IC50": 4.45}]}, {"molecular_target": "T1, CXCR3", "assay": "CXCR3 Ca2+ mobilization (FLIPR), stable hCXCR3-CHO cell line, I-TAC stimulated", "format": "cell-based", "parameters": "host or cells: CHO cells stably expressing hCXCR3", "conditions": "hCXCR3-CHO cells, I-TAC 100 nM stimulated Ca2+ response; read-out: Ca-ITAC", "method": "Human chinese hamster ovary (CHO) cell line stably expressing hCXCR3 was purchased from Euroscreen (Belgium) and culture in HAM's F12 (Invitrogen) containing 10% heat inactivated fetal calf serum (Cancerra, Australia), 50 units ml−1 penicillin, 50 μml−1 streptomycin, (Invitrogen, USA) and 400 μg/ml geneticin (G418) (Calbiochem, San Diego), according to the manufacturer.\nCXCR3Ca^2+ mobilization was measured using a stable hCXCR3—CHO cell line and a microtiter-plate based assay using FLIPR^TETRA™ (Molecular Devices). In more detail, cells were harvested and plated into black 384-well plates (Becton-Dickinson) at a density of 15 000 cells per well and grown in the incubator for 18 hours. On the next day the media was aspirated and replaced with the cell loading buffer (HBSS—(Invitrogen) based buffer containing calcium indicator and signal enhancer from a commercial Ca2+ assay kit (Becton Dickinson). The plates were incubated for 60 minutes in the incubator, the test compounds were added and the plates equilibrated for 20 minutes at room temperature.\nPlates were placed into FLIPR and the CXCR3 agonist (I-TAC, 100 nM) stimulated fluorescence change was quantitated. The activity of CXCR3 antagonists was determined as percent of the CXCR3 ligand I-TAC in the absence of the test compounds (=100% activity).", "units": {"IC50": "µM"}, "values": [{"smiles": "CCOc1ccc(S(=O)(=O)N(Cc2ccc(C(=O)O)c(F)c2)Cc2ccccn2)cc1", "note": "[Example 66, 4-{[(4-Ethoxy-benzenesulfonyl)-pyridin-2-ylmethyl-amino]-methyl}-2-fluoro-benzoic acid]", "IC50": 2}, {"smiles": "N#Cc1ccc(S(=O)(=O)N(Cc2ccc(C(=O)O)c(F)c2)Cc2ccccn2)cc1", "note": "[Example 67, 4-{[[(4-cyanophenyl)sulfonyl](pyridin-2-ylmethyl)amino]methyl}-2-fluorobenzoic acid]", "IC50": 0.505}, {"smiles": "Cc1nc(CN(Cc2ccc(-c3nnn[nH]3)cc2)S(=O)(=O)c2ccc(Cl)cc2)cs1", "note": "[Example 68, 4-chloro-N-(2-methyl-thiazol-4-ylmethyl)-N-[4-(2H-tetrazol-5yl)benzyl]benzenesulfonamide]", "IC50": 2}, {"smiles": "CC(C)(C)c1ccc(S(=O)(=O)N(Cc2ccc(C#N)cc2)Cc2ccccn2)cc1", "note": "[Example 177]", "IC50": 1.45}, {"smiles": "COc1cccc(S(=O)(=O)N(Cc2ccc(C#N)cc2)Cc2ccccn2)c1", "note": "[Example 178]", "IC50": 2}, {"smiles": "CC(C)(C)OC(=O)N[C@@H](C(=O)Nc1ccc(CN(Cc2ccccn2)S(=O)(=O)c2ccc(Cl)cc2)cc1)c1ccccc1", "note": "[Example 180]", "IC50": 1}, {"smiles": "COC(C(=O)Nc1ccc(CN(Cc2ccccn2)S(=O)(=O)c2ccc(Cl)cc2)cc1)c1ccccc1", "note": "(stereo not shown) [Example 182]", "IC50": 0.04}, {"smiles": "O=C(Nc1ccc(CN(Cc2ccccn2)S(=O)(=O)c2ccc(Cl)cc2)cc1)C(O)c1cccc(Cl)c1", "note": "(stereo not shown) [Example 184]", "IC50": 1}, {"smiles": "N#Cc1ccc(CN(Cc2ccccn2)S(=O)(=O)c2ccccc2Cl)cc1", "note": "[Example 186]", "IC50": 5}, {"smiles": "O=C(NC1(c2ccccc2)CC1)c1ccc(CN(Cc2cnccn2)S(=O)(=O)c2ccc(Cl)cc2)cc1", "note": "[Example 187]", "IC50": 4}, {"smiles": "CCOC(=O)c1ccc(CN(Cc2ccccn2)S(=O)(=O)c2ccc(OCC)cc2)cc1", "note": "[Example 191]", "IC50": 13}, {"smiles": "N#Cc1ccccc1CN(Cc1ccccn1)S(=O)(=O)c1ccc(Cl)cc1", "note": "[Example 196]", "IC50": 13}, {"smiles": "N#Cc1ccc(CN(CCCc2ccccc2)S(=O)(=O)c2ccc(Cl)cc2)cc1", "note": "[Example 198]", "IC50": 3.1}, {"smiles": "O=S(=O)(c1ccc(Cl)cc1)N(CCc1ccccc1)Cc1ccc(-c2nnn[nH]2)cc1", "note": "[Example 204]", "IC50": 2.01}, {"smiles": "CCOc1ccc(S(=O)(=O)N(Cc2ccc(C(=O)NCC(C)c3ccccc3)cc2)Cc2cccnc2)cc1", "note": "(stereo not shown) [Example 206]", "IC50": 4.5}, {"smiles": "O=S(=O)(c1ccc(Cl)cc1)N(CCCc1ccccc1)Cc1ccc(-c2nnn[nH]2)cc1", "note": "[Example 221]", "IC50": 1.7}, {"smiles": "CC(CCc1ccccc1)N(Cc1ccc(-c2nnn[nH]2)cc1)S(=O)(=O)c1ccc(Cl)cc1", "note": "(stereo not shown) [Example 224]", "IC50": 1.5}, {"smiles": "CC(CN(Cc1ccc(-c2nnn[nH]2)cc1)S(=O)(=O)c1ccc(Cl)cc1)c1ccccc1", "note": "(stereo not shown) [Example 227]", "IC50": 5}, {"smiles": "O=S(=O)(c1ccc(Cl)cc1)N(Cc1cccc(-c2nnn[nH]2)c1)Cc1ccccn1", "note": "[Example 228]", "IC50": 2.8}, {"smiles": "O=S(=O)(c1ccc(Cl)cc1)N(Cc1ccccc1)Cc1ccccc1-c1nnn[nH]1", "note": "[Example 229]", "IC50": 1.6}, {"smiles": "N#Cc1cccc(CN(Cc2ccccc2)S(=O)(=O)c2ccc(Cl)cc2)c1", "note": "[Example 230]", "IC50": 1.2}, {"smiles": "O=S(=O)(c1ccc(Cl)cc1)N(Cc1ccccc1)Cc1cccc(-c2nnn[nH]2)c1", "note": "[Example 234]", "IC50": 1.5}, {"smiles": "CC(C)(Cc1ccccc1)N(Cc1ccc(-c2nnn[nH]2)cc1)S(=O)(=O)c1ccc(Cl)cc1", "note": "[Example 236]", "IC50": 3}, {"smiles": "O=S(=O)(c1ccccc1Oc1ccccc1)N(Cc1ccc(-c2nnn[nH]2)cc1)Cc1ccccn1", "note": "[Example 237]", "IC50": 25}, {"smiles": "O=S(=O)(c1ccccc1-c1ccccc1)N(Cc1ccc(-c2nnn[nH]2)cc1)Cc1ccccn1", "note": "[Example 253]", "IC50": 9.5}, {"smiles": "CCOc1ccc(S(=O)(=O)N(Cc2ccc(N3CCOCC3)cc2)Cc2ccccn2)cc1", "note": "[Example 269]", "IC50": 9}, {"smiles": "CCOc1ccc(S(=O)(=O)N(Cc2ccc(Oc3ccncc3)cc2)Cc2ccccn2)cc1", "note": "[Example 270]", "IC50": 6}, {"smiles": "CC(c1cccc(-c2nnn[nH]2)c1)N(Cc1ccccc1)S(=O)(=O)c1ccc(Cl)cc1", "note": "(stereo not shown) [Example 271]", "IC50": 5}, {"smiles": "N#Cc1ccc(CN(C(=O)c2ccccn2)S(=O)(=O)c2ccc(Cl)cc2)cc1", "note": "[Example 279, 4-Chloro-N-(4-cyano-benzyl)-N-(pyridine-2-carbonyl)-benzenesulfonamide]", "IC50": 10}, {"smiles": "O=S(=O)(c1ccc(Cl)cc1)N(Cc1ccc(-c2nnn[nH]2)cc1)Cc1ccccc1-n1cccn1", "note": "[Example 280]", "IC50": 20}, {"smiles": "N#Cc1ccc(C(=O)N(Cc2ccccn2)S(=O)(=O)c2ccc(Cl)cc2)cc1", "note": "[Example 281, 4-Chloro-N-(4-cyano-benzoyl)-N-pyridin-2-ylmethyl-benzenesulfonamide]", "IC50": 7}, {"smiles": "N#Cc1ccc(S(=O)(=O)N(Cc2ccc(C(=O)NC3(c4ccc(OC(F)(F)F)cc4)CC3)cc2)Cc2ccccn2)cc1", "note": "[Example 282]", "IC50": 5.5}, {"smiles": "CCOc1ccc(S(=O)(=O)N(Cc2ccc(C(=O)NC3(c4ccc(OC(F)(F)F)cc4)CC3)cc2)Cc2ccccn2)cc1", "note": "[Example 283]", "IC50": 7.5}, {"smiles": "N#Cc1ccc(CCN(Cc2ccccn2)S(=O)(=O)c2ccc(Cl)cc2)cc1", "note": "[Example 286, 4-Chloro-N-[2-(4-cyano-phenyl)-ethyl]-N-pyridin-2-ylmethyl-benzenesulfonamide]", "IC50": 4}, {"smiles": "Cc1ccccc1S(=O)(=O)N(Cc1ccc(C#N)cc1)Cc1ccccn1", "note": "[Example 287]", "IC50": 7}, {"smiles": "N#Cc1ccc(CN(C2CCc3cc(Cl)ccc32)S(=O)(=O)c2ccc(Cl)cc2)cc1", "note": "(stereo not shown) [Example 299]", "IC50": 5.5}, {"smiles": "N#Cc1ccc(S(=O)(=O)N(Cc2ccc(NC(=O)Cc3nnn[nH]3)cc2)Cc2ccccn2)cc1", "note": "[Example 300]", "IC50": 12}, {"smiles": "Cc1cccc(S(=O)(=O)N(Cc2ccc(-c3nnn[nH]3)cc2)Cc2ccccn2)c1", "note": "[Example 311]", "IC50": 10}, {"smiles": "N#Cc1ccc(CN(Cc2ccccn2)S(=O)(=O)c2cccc(Cl)c2)cc1", "note": "[Example 313]", "IC50": 15}, {"smiles": "O=C(O)c1ccc(CN(Cc2cnccn2)S(=O)(=O)c2ccc(Cl)cc2)cc1", "note": "[Example 319]", "IC50": 20}, {"smiles": "COc1cc(OC)nc(CN(Cc2ccc(C(=O)O)cc2)S(=O)(=O)c2ccc(Cl)cc2)n1", "note": "[Example 328]", "IC50": 13}, {"smiles": "O=C(NC1(c2ccccc2)CC1)c1ccc(CN(Cc2ccc3cccnc3n2)S(=O)(=O)c2ccc(Cl)cc2)cc1", "note": "[Example 330]", "IC50": 10}, {"smiles": "COC(=O)C(Cc1ccc(O)cc1)NC(=O)c1ccc(CN(Cc2ccccn2)S(=O)(=O)c2ccc(Cl)cc2)cc1", "note": "(stereo not shown) [Example 345]", "IC50": 18}, {"smiles": "CCOc1ccc(S(=O)(=O)N(Cc2ccc(C(=O)O)c(OC)c2)Cc2ccccn2)cc1", "note": "[Example 346]", "IC50": 7}, {"smiles": "CCOc1ccc(S(=O)(=O)N(Cc2ccc(C(=O)OC)c(O)c2)Cc2ccccn2)cc1", "note": "[Example 353]", "IC50": 6}, {"smiles": "O=C(NC(Cc1ccc(O)cc1)C(=O)O)c1ccc(CN(Cc2ccccn2)S(=O)(=O)c2ccc(Cl)cc2)cc1", "note": "(stereo not shown) [Example 354]", "IC50": 6}]}]}
